Measured values as given in patent US12030878B2 (BRISTOL-MYERS SQUIBB COMPANY, priority 2017, dated 2024).
pIC50: −log10 of the molar value.

Columns and labels:
Format in all cases: cell-based
human TLR9 = molecular target: T1, human TLR9 (Homo sapiens, UniProt Q9NR96); assay: TLR9 inhibition reporter assay (HEK-Blue SEAP); settings: HEK-Blue cells overexpressing human TLR9, stimulated with ODN2006 5 nM, 22 hour incubation
T1 construct: host or cells: HEK-Blue cells
T1 sequence (Q9NR96 26-1032): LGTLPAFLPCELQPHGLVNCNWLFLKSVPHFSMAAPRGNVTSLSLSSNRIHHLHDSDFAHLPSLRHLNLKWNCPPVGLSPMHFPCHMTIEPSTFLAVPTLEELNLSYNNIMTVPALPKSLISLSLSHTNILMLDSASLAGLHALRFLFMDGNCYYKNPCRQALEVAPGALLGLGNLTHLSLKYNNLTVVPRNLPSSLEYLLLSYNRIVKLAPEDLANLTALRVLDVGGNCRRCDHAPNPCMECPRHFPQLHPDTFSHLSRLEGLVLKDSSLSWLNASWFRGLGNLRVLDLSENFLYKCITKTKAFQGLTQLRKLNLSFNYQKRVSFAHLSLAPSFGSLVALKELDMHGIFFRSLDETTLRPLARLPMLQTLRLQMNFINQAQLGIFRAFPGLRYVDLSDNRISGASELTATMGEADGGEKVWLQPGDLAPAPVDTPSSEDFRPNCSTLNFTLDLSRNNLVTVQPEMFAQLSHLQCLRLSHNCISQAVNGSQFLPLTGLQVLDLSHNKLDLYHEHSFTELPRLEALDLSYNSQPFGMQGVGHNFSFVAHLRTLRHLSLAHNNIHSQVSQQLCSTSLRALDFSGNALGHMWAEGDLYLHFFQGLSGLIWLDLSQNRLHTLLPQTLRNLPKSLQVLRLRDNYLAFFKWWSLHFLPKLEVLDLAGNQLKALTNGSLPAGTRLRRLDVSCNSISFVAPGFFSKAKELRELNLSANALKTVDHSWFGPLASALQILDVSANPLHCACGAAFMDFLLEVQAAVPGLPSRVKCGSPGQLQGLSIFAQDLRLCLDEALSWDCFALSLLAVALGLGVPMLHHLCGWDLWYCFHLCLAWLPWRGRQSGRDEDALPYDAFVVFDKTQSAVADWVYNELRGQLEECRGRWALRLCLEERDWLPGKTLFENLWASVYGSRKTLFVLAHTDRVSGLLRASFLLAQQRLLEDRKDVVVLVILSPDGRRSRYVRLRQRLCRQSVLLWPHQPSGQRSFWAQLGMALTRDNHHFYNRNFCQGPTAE
Summary of the method: (§1)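 Test compounds, final 0.05 nM–50 μM, pre-treat HEK-Blue human TLR7, TLR8 or TLR9 reporter cells before agonist addition (TLR8 R848 15.9 μM; TLR7 gardiquimod 7.5 μM; TLR9 ODN2006 5 nM). Incubation runs 22 h, 37 °C. SEAP detection gives percent inhibition against DMSO and reference-inhibitor controls.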

human TLR7 = molecular target: T2, human TLR7 (Homo sapiens, UniProt Q9NYK1); assay: TLR7 inhibition reporter assay (HEK-Blue SEAP); settings: HEK-Blue cells overexpressing human TLR7, stimulated with gardiquimod 7.5 μM, 22 hour incubation
T2 construct: host or cells: HEK-Blue cells
T2 sequence (Q9NYK1 27-1049): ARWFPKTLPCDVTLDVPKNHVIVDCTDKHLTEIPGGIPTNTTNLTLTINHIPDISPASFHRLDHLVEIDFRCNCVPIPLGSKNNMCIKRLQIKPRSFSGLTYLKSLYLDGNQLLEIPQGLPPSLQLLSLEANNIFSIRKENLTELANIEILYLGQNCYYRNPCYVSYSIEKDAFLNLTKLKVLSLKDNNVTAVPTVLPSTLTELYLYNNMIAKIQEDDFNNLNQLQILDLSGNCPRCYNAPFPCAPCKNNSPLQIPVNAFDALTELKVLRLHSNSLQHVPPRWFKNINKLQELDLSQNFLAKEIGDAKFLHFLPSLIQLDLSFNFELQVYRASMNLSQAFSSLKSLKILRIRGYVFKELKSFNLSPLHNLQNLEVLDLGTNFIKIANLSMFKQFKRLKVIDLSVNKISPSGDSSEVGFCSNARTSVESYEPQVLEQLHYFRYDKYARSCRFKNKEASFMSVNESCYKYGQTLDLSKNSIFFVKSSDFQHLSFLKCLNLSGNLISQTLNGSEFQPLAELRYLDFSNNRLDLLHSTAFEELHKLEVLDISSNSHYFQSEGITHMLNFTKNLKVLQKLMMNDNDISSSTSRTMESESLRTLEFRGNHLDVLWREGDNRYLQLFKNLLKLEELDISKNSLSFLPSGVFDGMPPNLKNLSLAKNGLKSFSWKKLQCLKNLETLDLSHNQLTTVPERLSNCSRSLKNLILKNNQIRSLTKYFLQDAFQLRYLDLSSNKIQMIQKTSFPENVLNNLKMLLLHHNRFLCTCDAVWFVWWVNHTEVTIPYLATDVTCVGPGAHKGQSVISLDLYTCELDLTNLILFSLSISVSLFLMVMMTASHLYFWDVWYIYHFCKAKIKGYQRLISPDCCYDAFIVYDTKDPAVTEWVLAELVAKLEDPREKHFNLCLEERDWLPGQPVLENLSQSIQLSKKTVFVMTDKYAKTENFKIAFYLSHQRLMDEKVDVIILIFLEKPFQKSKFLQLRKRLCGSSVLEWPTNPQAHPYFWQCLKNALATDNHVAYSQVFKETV
Summary of the method: as §1

human TLR8 = molecular target: T3, human TLR8 (Homo sapiens, UniProt Q9NR97); assay: TLR8 inhibition reporter assay (HEK-Blue SEAP); settings: HEK-Blue cells overexpressing human TLR8, stimulated with R848 15.9 μM, 22 hour incubation
T3 construct: host or cells: HEK-Blue cells
T3 sequence (Q9NR97 27-1041): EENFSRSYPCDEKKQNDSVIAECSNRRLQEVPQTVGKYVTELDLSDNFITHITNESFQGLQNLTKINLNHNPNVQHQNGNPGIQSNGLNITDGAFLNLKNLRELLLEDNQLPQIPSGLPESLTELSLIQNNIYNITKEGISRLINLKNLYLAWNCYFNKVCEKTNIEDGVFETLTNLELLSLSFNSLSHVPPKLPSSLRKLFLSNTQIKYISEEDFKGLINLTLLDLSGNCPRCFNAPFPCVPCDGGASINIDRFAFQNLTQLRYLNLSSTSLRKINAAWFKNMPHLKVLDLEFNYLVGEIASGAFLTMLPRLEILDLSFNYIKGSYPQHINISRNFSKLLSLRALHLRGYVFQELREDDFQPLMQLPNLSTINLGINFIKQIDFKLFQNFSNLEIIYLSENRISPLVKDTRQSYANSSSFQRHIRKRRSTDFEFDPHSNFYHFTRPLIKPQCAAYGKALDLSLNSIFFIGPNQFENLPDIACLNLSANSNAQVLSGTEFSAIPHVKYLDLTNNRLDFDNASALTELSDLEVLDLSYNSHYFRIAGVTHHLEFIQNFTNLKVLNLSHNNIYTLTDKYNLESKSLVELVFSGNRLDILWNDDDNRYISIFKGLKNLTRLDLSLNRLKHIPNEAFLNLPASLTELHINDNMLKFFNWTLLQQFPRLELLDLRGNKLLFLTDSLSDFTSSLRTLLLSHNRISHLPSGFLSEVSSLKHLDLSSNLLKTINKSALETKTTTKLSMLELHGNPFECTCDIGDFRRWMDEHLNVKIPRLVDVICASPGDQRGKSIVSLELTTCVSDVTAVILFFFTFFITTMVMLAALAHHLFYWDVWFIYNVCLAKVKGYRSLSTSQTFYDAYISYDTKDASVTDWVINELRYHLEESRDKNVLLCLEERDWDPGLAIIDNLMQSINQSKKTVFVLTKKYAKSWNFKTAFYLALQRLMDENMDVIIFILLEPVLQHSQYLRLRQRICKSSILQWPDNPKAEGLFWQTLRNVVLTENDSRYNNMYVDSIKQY
Summary of the method: as §1

Which results are given for `Cc1cc(-c2[nH]c3ccc(OCC(=O)NCCC(C)(C)O)cc3c2C(C)C)ccn1` [Example 155, N-(3-hydroxy-3-methylbutyl)-2-((3-isopropyl-2-(2-methylpyridin-4-yl)-1H-indol-5-yl)oxy)acetamide]?
pIC50 (human TLR9): < 4.30; pIC50 (human TLR7): 6.11; pIC50 (human TLR8): 6.14

With `Cc1cc(-c2[nH]c3ccc(OCC4CCN(CC(=O)N(C)C)CC4)cc3c2C(C)C)cn2ncnc12` [Example 86, 2-(4-(((3-isopropyl-2-(8-methyl-[1,2,4]triazolo[1,5-a]pyridin-6-yl)-1H-indol-5-yl)oxy)methyl)piperidin-1-yl)-N,N-dimethylacetamide] as the compound, how does the pIC50 (human TLR9) read?
Its pIC50 is 5.36.

And the pIC50 (human TLR7)?
Its pIC50 is 9.40.

And the pIC50 (human TLR8)?
Its pIC50 is 8.55.

Which results are given for `Cc1cc(-c2[nH]c3ccc(O[C@H]4CCCN(CC(=O)N(C)C)C4)cc3c2C(C)C)cn(C)c1=O` [Example 82, (S)-2-(3-((2-(1,5-dimethyl-6-oxo-1,6-dihydropyridin-3-yl)-3-isopropyl-1H-indol-5-yl)oxy)piperidin-1-yl)-N,N-dimethylacetamide]?
pIC50 (human TLR9): 4.39; pIC50 (human TLR7): 7.76; pIC50 (human TLR8): 7.56

How did the pIC50 (human TLR9) turn out when `Cc1cc(-c2[nH]c3ccc(OCC(=O)NC4CCC5CNCC54)cc3c2C(C)C)ccn1` (stereo not drawn) [Example 142, 2-((3-isopropyl-2-(2-methylpyridin-4-yl)-1H-indol-5-yl)oxy)-N-(octahydrocyclopenta[c]pyrrol-4-yl)acetamide] was run?
Its pIC50 is 6.42.

What about the pIC50 (human TLR7) of the same compound?
Its pIC50 is 6.46.

And the pIC50 (human TLR8)?
The pIC50 was 7.11.

What does the source list for `Cc1cc(-c2[nH]c3ccc(OCC(=O)N4CCC(CN)CC4)cc3c2C(C)C)ccn1` [Example 147, 1-(4-(aminomethyl)piperidin-1-yl)-2-((3-isopropyl-2-(2-methylpyridin-4-yl)-1H-indol-5-yl)oxy)ethan-1-one]?
pIC50 (human TLR9): 5.81; pIC50 (human TLR7): 5.92; pIC50 (human TLR8): 6.32

How did the pIC50 (human TLR9) turn out when `COc1ccc(-c2[nH]c3ccc(OCC(=O)N4CCC(OC5CCNCC5)CC4)cc3c2C(C)C)cc1OC` [Example 138, 2-((2-(3,4-dimethoxyphenyl)-3-isopropyl-1H-indol-5-yl)oxy)-1-(4-(piperidin-4-yloxy)piperidin-1-yl)ethan-1-one] was run?
The pIC50 was 5.72.

What about the pIC50 (human TLR7) of the same compound?
The pIC50 was 6.55.

What about the pIC50 (human TLR8) of the same compound?
Its pIC50 is 7.61.

What does the source list for `Cc1cc(-c2[nH]c3ccc(OC4CCN(C(=O)CN(C)C)CC4)cc3c2C(C)C)ccn1` [Example 196, 2-(dimethylamino)-1-(4-((3-isopropyl-2-(2-methylpyridin-4-yl)-1H-indol-5-yl)oxy)piperidin-1-yl)ethan-1-one]?
pIC50 (human TLR9): 5.85; pIC50 (human TLR7): 8.00; pIC50 (human TLR8): 7.93

With `Cc1cc(-c2[nH]c3ccc(OCC4CCN(CC(C)(C)O)CC4)cc3c2C(C)C)cn2ncnc12` [Example 27, 1-(4-(((3-isopropyl-2-(8-methyl-[1,2,4]triazolo[1,5-a]pyridin-6-yl)-1H-indol-5-yl)oxy)methyl)piperidin-1-yl)-2-methylpropan-2-ol] as the compound, how does the pIC50 (human TLR9) read?
The pIC50 was 5.76.

What about the pIC50 (human TLR7) of the same compound?
The pIC50 was 9.30.

And the pIC50 (human TLR8)?
The pIC50 was 8.77.

How did the pIC50 (human TLR9) turn out when `Cc1cc(-c2[nH]c3ccc(OCC4CCN(CC(=O)N(C)C)CC4)cc3c2C(C)C)cc(C)n1` [Example 80, 2-(4-(((2-(2,6-dimethylpyridin-4-yl)-3-isopropyl-1H-indol-5-yl)oxy)methyl)piperidin-1-yl)-N,N-dimethylacetamide] was run?
Its pIC50 is 6.40.

What about the pIC50 (human TLR7) of the same compound?
Its pIC50 is 8.11.

And the pIC50 (human TLR8)?
The pIC50 was 8.07.

`Cc1cc(-c2[nH]c3ccc(OC4CCN(C(C)C)CC4)cc3c2C(C)C)ccn1` [Example 186, 3-isopropyl-5-((1-isopropylpiperidin-4-yl)oxy)-2-(2-methylpyridin-4-yl)-1H-indole] was tested. Which pIC50 (human TLR9) did it give?
The pIC50 was 5.57.

And the pIC50 (human TLR7)?
Its pIC50 is 7.15.

What about the pIC50 (human TLR8) of the same compound?
Its pIC50 is 8.51.

With `CNC(=O)CN1CCC(COc2ccc3[nH]c(-c4cn(C)c(=O)c(C)c4C)c(C(C)C)c3c2)CC1` [Example 116, 2-(4-(((3-isopropyl-2-(1,4,5-trimethyl-6-oxo-1,6-dihydropyridin-3-yl)-1H-indol-5-yl)oxy)methyl)piperidin-1-yl)-N-methylacetamide] as the compound, how does the pIC50 (human TLR9) read?
The pIC50 was 4.77.

What about the pIC50 (human TLR7) of the same compound?
Its pIC50 is 7.79.

What about the pIC50 (human TLR8) of the same compound?
Its pIC50 is 8.28.
